{"source": "patent US20100240700A1", "about": "“PROPHYLACTIC PRETREATMENT WITH ANTIOXIDANTS” (MITOS PHARMACEUTICALS, INC., priority 2003, published 2010)", "system": "cerebral ischemia (infarcts) in patients with aneurysmal subarachnoid hemorrhage", "experiment": "clinical study of Tempol on prevention of cerebral ischemia during treatment of aneurysms (MRI-DWI infarct count and size)", "assay_type": "in vivo", "settings": "human patients, 1-300 mg/kg orally before and after surgical or endovascular treatment; MRI-DWI 1-3 days and 6 weeks post-treatment", "method": "This example describes a clinical study to determine the effect of Tempol on the prevention of cerebral ischemia during treatment of aneurysms in human patients that have bled. Patients, having suffered aneurysmal subarachnoid hemorrhaging, undergo magnetic resonance imaging (MRI-DWI) to count the number of infarcts and measure their size. Either 1-300 mg/kg of Tempol or a placebo are orally administered to the human patients. Patients undergo treatment for subarachnoid hemorrhaging (e.g., surgical or endovascular). After surgery, 1-300 mg/kg of Tempol or a placebo are orally administered to the patients. 1-3 days post-treatment, follow up MRI-DWI is used to count and measure the size of infarcts. The number and size of the infarcts is also measured 6 weeks post-treatment using MRI-DWI."}
{"smiles": "CC1(C)CC(O)CC(C)(C)N1[O]", "note": "[Tempol, 4-hydroxy-2,2,6,6-tetramethylpiperidine-1-oxyl]", "values": [{"measurement": "number of infarcts (MRI-DWI) versus placebo", "result": "fewer"}, {"measurement": "size of infarcts (MRI-DWI) versus placebo", "result": "smaller sized"}]}
